According to publication PMC12017328, “RNA toehold switch-based reporter assay to assess bacterial uptake of antisense oligomers” (mBio, 2025):

Assays:
[1] = test system: Salmonella ΔsbmA mutant carrying TS7-Mut_9::sfGFP; test: Toehold switch reporter assay, flow cytometry, ΔsbmA mutant; type: cell-based, Salmonella enterica serovar Typhimurium; conditions: 5 µM, 4 h
Text: To confirm that activation of the toehold-switch reporter correlates with successful uptake of PNAs, we used a Salmonella ΔsbmA mutant strain unable to express the inner membrane transporter SbmA. […] In the ΔsbmA strain, treatment with KFF-PNA_toe triggered only marginal GFP expression in a small subpopulation of cells (ca 20%) as opposed to nearly 100% of all cells in the corresponding wild-type strain (Fig. 6A). The overall fluorescence intensity (FI) of the ΔsbmA mutant was also much lower than the wild-type strain (Fig. 6B).
Fig 6 Flow cytometric analysis of CPP-PNA uptake using the toehold switch reporter in a ΔsbmA mutant of Salmonella. […] (B) Median fluorescence intensity values for water-treated control (Control, black) and PNA-treated (KFF-PNA_toe, orange) samples are given in the plots. […]
(§1) Bacterial cells were treated as described above, fixed with 4% paraformaldehyde (PFA) in phosphate-buffered saline (PBS) after the indicated time points, and stained with 1 µg/mL DAPI for flow cytometric measurement of DAPI-positive bacterial cells. […] Flow cytometry was performed using the Agilent Novocyte flow cytometer with a high-throughput sampler, and 100,000 events were recorded per sample. The DAPI fluorescence was detected using the Pacific Blue channel; sfGFP and mNeon were detected in the FITC channel, and mCherry fluorescence in the PE-Texas Red channel. […]

[2] = test system: Salmonella carrying the TS7::sfGFP reporter plasmid; test: Toehold switch reporter assay, flow cytometry; type: cell-based, Salmonella enterica serovar Typhimurium strain SL1344
Protocol: (§2) Overnight cultures of respective bacterial strains (listed in Table S5) were diluted 1:100 in fresh MHB and grown to OD600 0.3. Overnight and secondary cultures were prepared with or without chloramphenicol (20 µg/mL) depending on the antibiotic resistance profile of the strain. Ninty-five microliters of the 0.3 OD600 bacterial suspension was distributed in the 96-well plate and mixed with 5 µL water or 20× CPP PNA working solutions (150 µM, 100 µM or 50 µM stocks in water). An equivalent volume of water was added to the bacteria to serve as untreated control. For testing the activity in other growth media (M9 minimal medium and LB), the bacteria were cultured in the respective media and treated as described above.
(§3) The PNA-treated samples were incubated in the plate reader for 4–24 h at 37°C, with continuous double-orbital shaking (237 counts per minute). The fluorescence (λex 480 nm/λem 510 nm) and OD600 were recorded in a Synergy H1 plate reader (Biotek) by measuring every 20 min. The bacteria were sampled at various time points post-treatment and further analyzed by flow cytometry.
(§4) Bacterial cells were treated as described above, fixed with 4% paraformaldehyde (PFA) in phosphate-buffered saline (PBS) after the indicated time points, and stained with 1 µg/mL DAPI for flow cytometric measurement of DAPI-positive bacterial cells. Cell suspensions were diluted by a factor of ~100–1,000 in PBS and sampled from 96-well plates to achieve ~2,000 counts/s for flow cytometric measurements. Flow cytometry was performed using the Agilent Novocyte flow cytometer with a high-throughput sampler, and 100,000 events were recorded per sample. The DAPI fluorescence was detected using the Pacific Blue channel; sfGFP and mNeon were detected in the FITC channel, and mCherry fluorescence in the PE-Texas Red channel. The lower threshold for FSC-H was set to 2,000 to eliminate the potential artifacts from smaller particles such as dust, bubbles, or cell debris. The wild-type strains without plasmids served as a control to detect the background fluorescence, termed bacterial background. A contour plot with FSC and SSC, each with bins defined on a logarithmic scale was used to select singlets. The gating strategy is described in Fig.S6. The median fluorescence intensity was used for calculating the fold upregulation of fluorescence. Flow cytometry data sets were analyzed using the Novocyte software (Agilent).
(§5) Fold upregulation in median fluorescence intensity (FI) from flow cytometry was calculated as follows:
(§6) fold upregulation = FI (sample)−FI(bacterial background)/FI (water control)−FI(bacterial background)

[3] = test system: Salmonella carrying the TS7::sfGFP reporter plasmid; test: Toehold switch reporter assay, microplate reader; type: cell-based, Salmonella enterica serovar Typhimurium strain SL1344; conditions: CPP conjugated to PNA_toe, 5 µM, TS7-Mut_9::sfGFP, 17 h, MHB; for Fold increase in fluorescence compared to the water-treated control: normalized to OD600
Text: Next, we tested whether 11-mer PNAs can activate the toehold switch in bacteria. We established the reporter assay in Salmonella enterica serovar Typhimurium (referred to as Salmonella hereafter), which we have previously used as a model organism for studying PNAs ([13], [17], [22]). In constructing a reporter plasmid, we cloned the TS7 sequence upstream of the coding sequence of superfolder GFP (sfGFP) and downstream of a constitutive PLtetO-1 promoter in the pXG10-SF vector ([35]) (see Materials and Methods for details). The final product is a fusion protein (TS7::sfGFP) in which the 10 amino acids from the short TS7 coding sequence are genetically linked to the N-terminus of sfGFP. We introduced the reporter plasmid in Salmonella. The bacteria were grown to an early log-phase in standard Mueller-Hinton broth (MHB), commonly used for testing antibacterial activity ([36]). As a proof-of-concept, we chose to deliver the PNAs through conjugation with (KFF)3K, a frequently used CPP (referred to as KFF hereafter). We tested two PNAs, PNA_toe as used above in vitro and a PNA that targets the mid-stem region (PNA_mid) of the switch (Fig. 2A). We treated the bacterial culture with varying concentrations (2.5 µM, 5 µM, or 7.5 µM) of the KFF-PNAs in a microtiter plate, recording GFP fluorescence and turbidity as bacterial growth continued.
as §2, §3
(§7) Normalization of fluorescence intensity (FInorm) = FI (sample)−FI (medium background)/OD
Fold upregulation in fluorescence intensity (FI) from the plate reader was calculated as follows:
fold upregulation = FI (normalized sample)/FI (normalized control)

[4] = test system: E. coli BW25113 expressing TS7-Mut_9::sfGFP; test: Toehold switch reporter assay, flow cytometry; type: cell-based; conditions: CPP conjugated to PNA_toe, 5 µM, 17 h
Protocol: as §2, with “For testing the activity in other growth media (M9 minimal medium and LB), the bacteria were cultured in the respective media and treated as described above.” left out
as §3
as §1, with “sample.” for “sample. The DAPI fluorescence was detected using the Pacific Blue channel; sfGFP and mNeon were detected in the FITC channel, and mCherry fluorescence in the PE-Texas Red channel.”

[5] = test system: Salmonella, UPEC 536, E. coli MG1655 and BW25113 expressing TS7-Mut_9::sfGFP; test: Toehold switch reporter assay, flow cytometry, statements for all strains; type: cell-based, Salmonella enterica; E. coli; conditions: CPP conjugated to PNA_toe, 5 µM; for Dynamics of sfGFP upregulation: measured at 4, 6 and 17 h, all strains
Protocol: According to previous RNA-seq analyses ([12], [13], [22]), CPP-PNAs can strongly downregulate target mRNAs within 15 min. […] We therefore repeated the screen conducted and assayed fluorescence by flow cytometry at 4, 6, and 17 h post-treatment. […] The level of upregulation observed in the E. coli K12 strains was again substantially lower than in Salmonella and UPEC 536. […] This might be related to the stability of KFF in the culture media.
Fig 9 Flow cytometric analysis of fluorescence of sfGFP informs on delivery efficiency of CPPs. Bacterial cultures expressing the TS7-Mut_9::sfGFP reporter construct treated with the indicated CPP-PNA_toe constructs at 5 µM each. The median fluorescence intensity of sfGFP was measured after 4 h (black bars), 6 h (dark gray bars), and 17 h (light gray bars) of treatment using flow cytometry. Relative upregulation of sfGFP is shown and was calculated by dividing the median fluorescence intensity of the test samples by the median fluorescence intensity of the control samples, to which water was added. Error bars indicate the standard deviation calculated from two independent experiments.
as §2, §4, §5, §6

[6] = cited from earlier work
Text: (§8) For example, we observed a rapid but transient increase in fluorescence for some CPPs (e.g., KFF) and a sustained increase for others (e.g., RXR). This variation can likely be explained by the chemistry and stability of these carriers. […] Therefore, the different dynamics in fluorescence increase c ...

[7] = test system: E. coli BW25113, MG1655 and UPEC 536 carrying TS7-Mut_9::sfGFP; test: Toehold switch reporter assay, microplate reader, E. coli strains; type: cell-based; conditions: CPP conjugated to PNA_toe; 5 µM; 17 h; MHB; all three E. coli strains
Text: Having established the CPP screening assay in Salmonella, we next tested it in E. coli. We chose the E. coli K12 strains BW25113 and MG1655, and the uropathogenic isolate E. coli 536 (UPEC 536). […] To test if the low fluorescence was due to lower sfGFP protein levels, we performed a western blot analysis after treating the bacteria with CPP-PNAs (Fig. S4). The upregulation of sfGFP protein correlated with fluorescence upregulation. The E. coli K12 strains were less susceptible than Salmonella. For these strains, a more sensitive method compared to the microplate reader such as flow cytometry might provide better results.
Fig 8 Examining the performance of the toehold switch assay for screening of CPPs against E. coli. Various E. coli strains carrying the TS7-Mut_9::sfGFP encoding plasmid were treated with different CPP-PNA_toe constructs at 5 µM. As negative control, an equal volume of water (Control) was added instead. (A) Fluorescence intensity of sfGFP was recorded in a microplate reader for 17 h post-treatment measured in a microplate reader. (B) Upregulation in sfGFP fluorescence calculated relative to the water control based on the normalized fluorescence intensities at 17 h post-treatment. The experiment was performed two times, and bars indicate the mean value; error bars indicate the standard deviation from two independent experiments.
Overnight cultures of respective bacterial strains (listed in Table S5) were diluted 1:100 in fresh MHB and grown to OD600 0.3. […]
as §3, §7
Fold upregulation in fluorescence intensity (FI) from the plate reader was calculated as follows: […]

[8] = test system: bacteria; conditions: CPP conjugated to anti-acpP PNA; ref [13]; cited from earlier work
Text: as §8

KFFKFFKFFK [KFF-PNA_toe]
GFP positive population [1]: ~20%
Upregulation of the reporter (median fluorescence vs water control) ([2]; TS7-Mut_9::sfGFP, 5 µM, 4 h, Luria broth (LB)): 6- to 8 fold
Activation of the reporter (median fluorescence vs water control) ([2]; TS7-Mut_9::sfGFP, 5 µM, 4 h, M9 minimal medium): 50- to 60 fold
Activation of the reporter (median fluorescence vs water control) ([2]; TS7-Mut_9::sfGFP, 5 µM, 4 h, MHB, two independent experiments): 50- to 60 fold
Activation of the reporter compared with the original switch ([2]; TS7-Mut_13::sfGFP, 5 µM, 4 h, MHB): no improvement over the original switch
Activation of the reporter compared with the original switch ([2]; TS7-Mut_18::sfGFP, 5 µM, 4 h, MHB): no improvement over the original switch
Upregulation of the reporter (median fluorescence vs water control) ([2]; original TS7::sfGFP, 4 h, MHB): around 30 fold
GFP positive population ([2]; wild-type, TS7-Mut_9::sfGFP, 5 µM, 4 h): ~100%

RRWQW [L5a, cell-penetrating peptide RRWQW]
Fold increase in fluorescence compared to the water-treated control [3]: negligible upregulation

RRRQRRKKRGY [Seq118, cell-penetrating peptide …]
Reporter activation (fold upregulation of sfGFP vs water control) [4]: fivefold
Dynamics of sfGFP upregulation [5]: only showed upregulation at the 17 h time point

GRRRRRRRRRPPQ [R9-TAT, cell-penetrating peptide …]
Fold increase in fluorescence compared to the water-treated control [3]: negligible upregulation
Dynamics of sfGFP upregulation [5]: only showed upregulation at the 17 h time point

RXRRXRRXRRXRXB [cell-penetrating peptide RXRRXRRXRRXRXB, carrier for PNA]
Fold increase in fluorescence compared to the water-treated control [3]: highest fold increase in fluorescence
Speed of increase in fluorescence signal [3]: rapid increase in fluorescence signal
Dynamics of sfGFP upregulation [5]: rapid upregulation at 4 h
Stability to proteolytic degradation ([6]; unconjugated carrier peptide, ref [47]): resistant to proteolytic degradation
Reporter activation (sfGFP fluorescence vs water control) [7]: highest reporter activation

KFFKFFKFFK [KFF-PNA_ctrl]
Activation of GFP expression ([2]; TS7::sfGFP, 7.5 µM, 4 h post-treatment, MHB): did not activate GFP expression

RRRRR [R5, cell-penetrating peptide RRRRR]
Dynamics of sfGFP upregulation [5]: only showed upregulation at the 17 h time point

RQIKIWFQNRRMKWKK [ANT, cell-penetrating peptide …]
Fold increase in fluorescence compared to the water-treated control [3]: highest fold increase in fluorescence
Dynamics of sfGFP upregulation [5]: rapid upregulation at 4 h

RKKRRQRR [Seq35, cell-penetrating peptide RKKRRQRR]
Dynamics of sfGFP upregulation [5]: only showed upregulation at the 17 h time point

VALLPAVLLA [Seq23, cell-penetrating peptide …]
Fold increase in fluorescence compared to the water-treated control [3]: none
Dynamics of sfGFP upregulation [5]: least active carrier
Reporter activation (sfGFP fluorescence vs water control) [7]: least effective PNA carrier

RXRRXRRXRRXRXB [RXR-acpP, RXR conjugated to anti-acpP PNA …]
Time after which bacteria are eradicated [8]: 15 min

KFFKFFKFFK [cell-penetrating peptide …, carrier for PNA]
Fold increase in fluorescence compared to the water-treated control [3]: highest fold increase in fluorescence
Speed of increase in fluorescence signal [3]: rapid increase in fluorescence signal
Change of fluorescence over time ([5]; 4, 6 and 17 h): decrease
Dynamics of sfGFP upregulation [5]: rapid upregulation at 4 h
Stability to proteases and in culture medium [6]: sensitive to proteases and degraded in nutrient-rich media such as MHB
Reporter activation (sfGFP fluorescence vs water control) [7]: highest reporter activation
